Measurements from the METLIN SMRT retention time set (Domingo-Almenara et al. 2019).

Assay: gradient 5% acetonitrile 3 min, to 50% in 2 min, to 85% in 15 min, held 3 min, 100 µL/min
Conditions: column: Zorbax Extend-C18 2.1 x 50 mm; eluents: water / acetonitrile, 0.1% formic acid
Method in brief: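 Retention times come from adduct peaks that were picked computationally and then checked by hand. The standards, pure and pooled in mixtures of ~100 molecules, were run on a Zorbax Extend-C18 column (2.1 × 50 mm, 1.8 μm) at 100 μL/min with water and acetonitrile, each with 0.1% formic acid. Detection was by quadrupole time-of-flight mass spectrometry in positive and negative ionization mode, with a dead volume of 40 μL and a dwell volume of 900 μL.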

| SMILES | RP-LC retention time |
| --- | --- |
| CSc1ccc(CNC(=O)Cn2cc(-c3nnco3)c3ccccc32)cc1 | 805 s |
| O=[N+]([O-])c1ccc(-c2csc(N3CCOCC3)n2)cc1 | 1000 s |
| O=C(O)c1nn(Cc2ccc(Cl)cc2Cl)c2ccccc12 | 1050 s |
| CCN1CCC2(CC1)N=C(c1ccc(C)cc1C)CC(c1cc(Cl)ccc1O)N2 (stereo not drawn) | 668 s |
| Cc1ccc(N2C(=O)C3N=NN(Cc4nc(-c5ccc(Cl)cc5)no4)C3C2=O)cc1 (stereo not drawn) | 1070 s |
| O=C(c1ccc(F)c(Cl)c1)N1CCC2(CC1)N=C(c1ccccc1)NO2 | 800 s |
| O=C(NC1CCCCC1)N1CCC(c2noc(-c3ccncc3)n2)C1 (stereo not drawn) | 727 s |
| Cc1cc(C)c(C(=O)N2CCC(CC(=O)NCc3cccc(Cl)c3)CC2)[nH]1 | 804 s |
| CCc1nn(C)c(=O)c2cc(S(=O)(=O)NCc3ccccc3F)cn12 | 860 s |
| Cc1noc(-c2cc(=O)n(CC(=O)NCc3ccc(F)cc3Cl)c3ccccc23)n1 | 891 s |
| O=C(Nc1cnc2ccccc2c1)N(c1ccccc1)c1ccccc1 | 754 s |
| Cc1ccc(-c2nc(-c3ccc4c(c3)nnn4CCC(=O)N3CCCC3)no2)c(C)c1 | 1090 s |
| Cc1ccc(CC(=O)NC(CC(C)C)C(=O)Nc2nc3ccccc3[nH]2)cc1 (stereo not drawn) | 786 s |
| Cn1c(C(=O)NC2CCCCC2)cc2c(-c3cccs3)nn(-c3ccccc3)c21 | 1210 s |
| Cc1ccc(CNC(=O)CN2CCc3ccccc3C2C(=O)N2CCC(C)CC2)cc1C (stereo not drawn) | 1030 s |
| Cc1cccc(-c2nc3cnccn3c2NCCC(=O)NC2CCCC2)c1 | 670 s |
| CCNC(=O)c1nc(C(=O)NCc2ccc(F)cc2F)cs1 | 780 s |
| CCCCNC(=O)C1CCN(C(=O)Nc2ccc(NC(=O)Nc3ccccc3)cc2)CC1 | 729 s |
| CCC(C)C(NC(=O)c1cccc(OC)c1)C(=O)Nc1nc2ccccc2[nH]1 (stereo not drawn) | 726 s |
| Cc1nc(CC(=O)Nc2ccc(F)c(F)c2)cs1 | 754 s |
| CCC(C)NC(=O)C1CCCN(c2ncccc2-c2noc(C3CCC3)n2)C1 (stereo not drawn) | 930 s |
| O=C(NCc1csc(-c2cccs2)n1)C1CCN(C(=O)c2cccc(Cl)c2)CC1 | 802 s |
| CS(=O)(=O)N1CCC(C(=O)Nc2cccc(F)c2)Oc2ccccc21 (stereo not drawn) | 894 s |

| SMILES | RP-LC retention time |
| --- | --- |
| COc1ccc(C)cc1N1C(=O)CC(N2CCC(C(N)=O)CC2)C1=O (stereo not drawn) | 590 s |
| O=C(C1CCCN(c2ccc(-c3ccccc3)nn2)C1)N1CCN(c2ccccc2F)CC1 (stereo not drawn) | 788 s |
| O=C(O)c1cc(-c2ccc3c(c2)OCO3)nc2cc3c(cc12)OCCO3 | 690 s |
| CC(C)c1nnc(-c2cccnc2N2CCN(C(=O)C3CCCO3)CC2)o1 (stereo not drawn) | 675 s |
| CC(C)Oc1ccc(NC(=O)C2CCN(S(C)(=O)=O)c3ccccc3O2)cc1 (stereo not drawn) | 935 s |
| O=C(NCc1ccc2c(c1)OCO2)C1CCN(C(=O)c2ccccc2)CC1 | 706 s |
| O=C(NC1CCCCC1)C1CCc2nc(N3CCCCC3)ncc2C1 (stereo not drawn) | 723 s |
| CCOc1ccc(CN2CCC3(CCC3O)CC2)cc1OCC (stereo not drawn) | 598 s |
| COc1ccc(CNc2c(-c3nc(C4CC4)no3)cnc3nc(C)ccc23)cc1OC | 683 s |
| CCCCS(=O)(=O)c1cc2c(cc1NC(=O)Cc1ccc(Cl)cc1)n(C)c(=O)n2C | 919 s |
| O=C(CN1C(=O)COc2ccc(C(=O)N3CCCC3)cc21)N1CCN(c2ccccn2)CC1 | 583 s |
| Cc1noc2nc(C)n(CC(=O)Nc3ccccc3Br)c(=O)c12 | 766 s |
| CC(=O)N(C1CCOCC1)C1CCN(C(=O)Nc2ccccc2)CC1 | 655 s |
| Cc1nnc2n1CCC(N(C)C(=O)Cc1cccs1)CC2 (stereo not drawn) | 571 s |
| Cc1oc(CNC(=O)Nc2ccc(Cl)cc2F)nc1C(=O)N1CCCC1 | 723 s |
| CCn1c(N2CCC(C(=O)NCCCN3CCOCC3)CC2)cc(=O)n(C)c1=O | 574 s |
| CC(C)(C)c1cc(Br)ccc1OCC(=O)Nc1ncn[nH]1 | 797 s |
| CC1(C(=O)NCc2ccccc2)CCCN(C(=O)Nc2cccc(Br)c2)C1 (stereo not drawn) | 983 s |
| CN(C)c1ccc(C(=O)NC2CCN(c3ccc(F)cc3)C2=O)cc1 (stereo not drawn) | 778 s |
| CCn1cc(S(=O)(=O)N2CCc3ccccc3C2)c2cccnc21 | 950 s |
| Cc1cc(C)c(-c2noc(C)n2)c(NC(=O)c2cccc(Br)c2)n1 | 820 s |
| Cc1nnc(NC(=O)CN2CCC(c3nnc(C(F)(F)F)o3)CC2)s1 | 545 s |
| CC(=O)N=c1sc(S(N)(=O)=O)nn1C | 644 s |

| SMILES | RP-LC retention time |
| --- | --- |
| COC(=O)c1cc(S(=O)(=O)N2CCCC2C(=O)N2CCc3ccccc32)cn1C (stereo not drawn) | 848 s |
| CCC(=O)Nc1ccc(-n2cnc(C(=O)NCC(C)C)c2)nc1 | 667 s |
| COC(=O)c1c(C)[nH]c(C(=O)N2CCC(CC(=O)NCCC(C)N3CCCCCC3)CC2)c1C (stereo not drawn) | 604 s |
| Cn1c(=O)c2nc(S(=O)(=O)CCC(=O)Nc3cc(F)ccc3F)n(C)c2n(C)c1=O | 730 s |
| CCOC(=O)CNC(=O)N1CCN(Cc2nc3cccnc3n2-c2cccc(F)c2)CC1 | 612 s |
| Cc1ccnc(NC(=O)C2CC(=O)N(c3n[nH]c4cccc(F)c34)C2)c1 (stereo not drawn) | 602 s |
| CCN1C(=O)COc2ccc(-c3noc(-c4ccccc4C)n3)cc21 | 1230 s |
| Cc1noc([C@@H]2CN(S(=O)(=O)c3c(C)noc3C)C[C@H]2C(N)=O)n1 | 667 s |
| CCN1C(=O)c2ccccc2Oc2ccc(C(=O)NCCc3cccs3)cc21 | 944 s |
| CCCNC(=O)CCNc1c(-c2ccccc2C)nc2cnccn12 | 607 s |
| O=C(NCc1cccc(Br)c1)c1ccc2c(c1)ncn2CCN1CCCC1 | 599 s |
| CC(C)c1ccccc1NC(=O)CN1CCN(c2ccc(Cl)cc2)C1=O | 906 s |
| Cc1nc(-c2cccc(NC(=O)Cc3csc(Nc4ncccn4)n3)c2)cs1 | 731 s |
| CC(=O)N1CCN(c2ccc(NC(=O)c3ccccc3Br)cc2)CC1 | 646 s |
| COCCN1C(=O)CS(=O)C12CCN(C(=O)c1ccsc1)CC2 (stereo not drawn) | 593 s |
| Cc1ccccc1Cn1nc(-c2nc(C(C)(C)C)no2)ccc1=O | 1120 s |
| CCCNc1cc(N2CCC(CCC(=O)NCc3ccccc3)CC2)ncn1 | 666 s |
| Cc1cc(NC(C)C)n2nc(-c3ccc(Cl)cc3)c(C)c2n1 | 761 s |
| CC1CCN(C(=O)C2CCN(c3nc4ccc(-c5ccccc5F)nc4s3)CC2)CC1 | 1170 s |
| COc1cccc(C(=O)N2CCN=C2N2CCCC2)c1OC | 614 s |
| O=C(N1CCOCC1)N1CCN(S(=O)(=O)c2cccc([N+](=O)[O-])c2)CC1 | 668 s |
| O=C(NCC1CCN(S(=O)(=O)C2CC2)CC1)Oc1ccccc1 | 745 s |
